Source: ChEMBL document CHEMBL4196212, “Targeting Cytochrome P450 (CYP) 1B1 Enzyme with Four Series of A-Ring Substituted Estrane Derivatives: Design, Synthesis, Inhibitory Activity, and Selectivity” (J Med Chem, 2018)

Assays:
Cytochrome P450 1B1 = molecular target: T1, Cytochrome P450 1B1 (Homo sapiens, UniProt Q16678); experiment: Inhibition of recombinant human CYP1B1 incubated for 45 mins using 7-ethyl-O-resorufin substrate in presence of NADPH regenerating system by fluorescence based ethoxyresorufin-O-deethylase assay
T1 sequence (Q16678 whole entry): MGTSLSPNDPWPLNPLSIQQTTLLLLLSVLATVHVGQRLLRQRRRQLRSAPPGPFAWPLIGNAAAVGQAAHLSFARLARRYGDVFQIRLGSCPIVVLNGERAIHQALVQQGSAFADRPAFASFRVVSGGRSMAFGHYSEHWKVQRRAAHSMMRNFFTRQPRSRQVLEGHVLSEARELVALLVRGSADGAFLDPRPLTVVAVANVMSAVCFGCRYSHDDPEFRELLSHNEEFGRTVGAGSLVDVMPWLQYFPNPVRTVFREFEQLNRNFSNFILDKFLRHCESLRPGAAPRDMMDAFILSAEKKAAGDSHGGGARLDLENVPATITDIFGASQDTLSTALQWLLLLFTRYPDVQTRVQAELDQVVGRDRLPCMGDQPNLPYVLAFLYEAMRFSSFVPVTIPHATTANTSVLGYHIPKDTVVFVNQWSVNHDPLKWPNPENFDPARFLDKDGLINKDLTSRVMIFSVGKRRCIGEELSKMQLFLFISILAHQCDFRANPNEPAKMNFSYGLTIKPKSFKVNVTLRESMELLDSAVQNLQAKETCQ

Cytochrome P450 1A1 = molecular target: T2, Cytochrome P450 1A1 (Homo sapiens, UniProt P04798); experiment: Inhibition of recombinant human CYP1A1 incubated for 25 mins using 7-ethyl-O-resorufin substrate in presence of NADPH regenerating system by fluorescence based ethoxyresorufin-O-deethylase assay; type: ADME
T2 sequence (P04798 whole entry): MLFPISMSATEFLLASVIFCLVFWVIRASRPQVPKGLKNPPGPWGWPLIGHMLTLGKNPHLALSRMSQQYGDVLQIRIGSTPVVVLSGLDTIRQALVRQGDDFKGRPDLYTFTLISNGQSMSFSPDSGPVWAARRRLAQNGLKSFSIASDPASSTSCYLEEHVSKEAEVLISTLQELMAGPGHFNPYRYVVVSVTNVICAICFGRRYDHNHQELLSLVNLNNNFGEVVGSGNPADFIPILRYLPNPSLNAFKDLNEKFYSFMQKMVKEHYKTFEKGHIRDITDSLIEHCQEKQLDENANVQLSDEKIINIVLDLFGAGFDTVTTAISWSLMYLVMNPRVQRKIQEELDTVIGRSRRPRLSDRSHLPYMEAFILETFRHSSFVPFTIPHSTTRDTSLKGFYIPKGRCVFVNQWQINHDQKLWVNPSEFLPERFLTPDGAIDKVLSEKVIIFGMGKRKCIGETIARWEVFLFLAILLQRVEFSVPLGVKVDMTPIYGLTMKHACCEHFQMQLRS

CYP1A1 [1] = molecular target: T3, CYP1A1 (Homo sapiens, UniProt P04798); experiment: Inhibition of recombinant human CYP1A1 at 3 uM incubated for 25 mins using 7-ethyl-O-resorufin substrate in presence of NADPH regenerating system by fluorescence based ethoxyresorufin-O-deethylase assay; type: ADME; conditions: recombinant human CYP1A1, probe 7-ethyl-O-resorufin (7-ethoxyresorufin)
T3 sequence (P04798 whole entry): T2 sequence (P04798 whole entry)

CYP1A1 [2] = molecular target: T3, CYP1A1; experiment: Inhibition of recombinant human CYP1A1 at 0.3 uM incubated for 25 mins using 7-ethyl-O-resorufin substrate in presence of NADPH regenerating system by fluorescence based ethoxyresorufin-O-deethylase assay; type: ADME; conditions: recombinant human CYP1A1, probe 7-ethyl-O-resorufin (7-ethoxyresorufin)
Homo sapiens = organism: Homo sapiens; experiment: Selectivity index, ratio of IC50 for inhibition of recombinant human CYP1A1 to IC50 for inhibition of recombinant human CYP1B1
CYP1B1 [3] = molecular target: T4, CYP1B1 (Homo sapiens, UniProt Q16678); experiment: Inhibition of recombinant human CYP1B1 at 3 uM incubated for 45 mins using 7-ethyl-O-resorufin substrate in presence of NADPH regenerating system by fluorescence based ethoxyresorufin-O-deethylase assay; conditions: recombinant human CYP1B1, probe 7-ethyl-O-resorufin (7-ethoxyresorufin)
T4 sequence (Q16678 whole entry): T1 sequence (Q16678 whole entry)

CYP1B1 [4] = molecular target: T4, CYP1B1; experiment: Inhibition of recombinant human CYP1B1 at 0.3 uM incubated for 45 mins using 7-ethyl-O-resorufin substrate in presence of NADPH regenerating system by fluorescence based ethoxyresorufin-O-deethylase assay; conditions: recombinant human CYP1B1, probe 7-ethyl-O-resorufin (7-ethoxyresorufin)

Row | SMILES | IC50 (Cytochrome P450 1B1) | IC50 (Cytochrome P450 1A1) | inhibition at 25 min, 3 µM (CYP1A1 [1]) | inhibition at 25 min, 0.3 µM (CYP1A1 [2]) | Ratio IC50 (Homo sapiens) | inhibition at 0.75 h, 3 µM (CYP1B1 [3]) | inhibition at 0.75 h, 0.3 µM (CYP1B1 [4])
1 | C[C@]12CC[C@@H]3c4cc(-c5ccc(F)cc5)c(O)cc4CC[C@H]3[C@@H]1CC[C@@H]2O | 0.24 µM | 4.9 µM | 0% | 3% | 20 | 103% | 91%
2 | C#C[C@]1(O)CC[C@H]2[C@@H]3CCc4cc(O)c(-c5ccc(OC)cc5)cc4[C@H]3CC[C@@]21C | 0.37 µM | 9.2 µM | 23% | 7% | 25 | 94% | 58%
